Values of other authors in patent US20220273584A1, “Film Formulation Comprising Carriers” (Klaria Pharma Holding AB, priority 2019, published 2022).

Conditions: at a concentration of 1-10%

## CCCCCCCC/C=C\CCCCCCCC(=O)O [Oleic acid, oleic acid]
  permeability with porcine buccal epithelium: enhanced permeability
